Assays:
[1] = Stability in Simulated Gastric Fluid (SGF); assay type: in vitro ADME; set-up: key: % parent compound remaining relative to 0-minute sample
Protocol: (§1) Simulated gastric fluid (SGF) and Simulated intestinal fluid (SIF) stability are in vitro metrics indicating the ability of a compound to pass through the gastrointestinal tract […] or completely digested. An undigested or nearly undigested compound will usually survive gut transit long enough to be absorbed into the systemic circulation. Greater than 50% remaining intact compound at 1 hour indicates a relatively stable molecule that will likely be absorbed in the gut.
(§2) For each test compound, samples at a final concentration of 2 μg/mL are prepared in respective blank simulated gastric fluid with pepsin (pH 1.2) and simulated intestinal fluid with pancreatin (pH 6.8). All samples are incubated at 37° C. on a 150-rpm orbital shaker, and an aliquot is removed at predetermined time points (0 to 60 minutes). Samples are precipitated with three volumes of acetonitrile containing propranolol as internal standard, and centrifuged for 10 min at 2,000 g before LC-MS/MS analysis of the supernatant solutions. Percent parent compound remaining is determined relative to 0-minute incubation samples. If a sufficient number of time points are available, the degradation half-life is calculated based on the natural log of % compound remaining vs. time plot.

[2] = Plasma Stability; assay type: in vitro ADME, human
Protocol: Plasma stability estimates the ability of a compound to remain intact in the blood. For prodrugs that are intended to be hydrolyzed by plasma enzymes a certain level of instability in plasma indicates the compound is probably breaking down to the parent drug. A stability range of 25-75% remaining parent compound after 1 hour in plasma indicates the compound is likely breaking down to the parent drug molecule and a patient will be exposed to this parent molecule.
Assessment of plasma stability was carried out by individual incubations of drug candidates in fresh human plasma at a concentration of 1 μM for 1 hour at 37° C. After which, the samples were de-proteinized by addition of 2 volumes of acetonitrile containing 0.1% formic acid and internal standard, vortex mixed for 2 minutes and centrifuged at 4,000 rpm for 10 minutes to pellet precipitated protein. The resulting supernatant containing the drug candidates was diluted 5-fold with water containing 0.1% formic acid and submitted to LCMS/MS analysis. All determinations were done in triplicate. Plasma stability was expressed as percent of control remaining.
See Pelletier et al. ACS Med. Chem. Lett. 2018, 9, 752-756.

[3] = Stability in Simulated Intestinal Fluid (SIF); assay type: in vitro ADME; set-up: key: % parent compound remaining relative to 0-minute sample
Protocol: as §1, §2

[4] = % remaining at 1 h, SGF with pepsin pH 1.2, 2 μg/mL, 37° C.
[5] = % remaining at 1 h, human plasma, 1 μM, 37° C.
[6] = % remaining at 1 h, SIF with pancreatin pH 6.8, 2 μg/mL, 37° C.
[7] = simulated gastric fluid, remaining at 1 h
[8] = simulated intestinal fluid, remaining at 1 h
[9] = % remaining at 1 h in simulated gastric fluid, the 15th table
[10] = % remaining at 1 h in human plasma, the 15th table
[11] = % remaining at 1 h in simulated intestinal fluid, the 15th table
[12] = bare number, unit or time not given, the 15th table Examples 204-207

Q: Which SGF ([1]; % remaining at 1 h in simulated gastric fluid, the 17th table) does the source give for `CCCCCCCOC(=O)OCSc1nc(=O)c2c(ccn2COC(=O)OCCCCCCC)n1CCOC(C)C` [Example 220] here?
A: 77% remaining

Q: And the “human Plasma stability” value ([2]; % remaining at 1 h in human plasma, the 17th table)?
A: 55% remaining

Q: What about the SIF ([3]; % remaining at 1 h in simulated intestinal fluid, the 17th table) of the same compound?
A: 5% remaining

Q: With `CC(C)OCCn1c(=S)n2c(=O)c3c1ccn3COC(=O)CCCCCCC(=O)OC2` [Example 134, 16-[2-(Propan-2-yloxy)ethyl]-15-sulfanylidene-3,12-dioxa-1,14,16-triazatricyclo[12.5.2.0^{17,20}]henicosa-17(20),18-diene-4,11,21-trione] as the compound, how does the SGF [1, 4] read?
A: 99%

Q: What about the “human Plasma stability” value [2, 5] of the same compound?
A: 1%

Q: And the SIF [3, 6]?
A: 1%

Q: What does the source list for `CC(C)OCCn1c(SCOC(=O)N(C)CCOCCN)nc(=O)c2c1ccn2COC(=O)N(C)CCOCCN.O=C(O)C(F)(F)F.O=C(O)C(F)(F)F` [Example 382, bis(trifluoroacetic acid) (2-{[({[2-(2-aminoethoxy)ethyl](methyl)carba-moyl}oxy)methyl]sulfanyl}-4-oxo-1-[2-(propan-2-yloxy)ethyl]-1H,4H,5H-pyrrolo[3,2-d]pyrimidin-5-yl)methyl N-[2-(2-aminoethoxy)ethyl]-N-methylcarbamate]?
A: SGF [1, 7]: 100% remaining; human Plasma stability ([2]; human plasma, remaining at 1 h): 98% remaining; SIF [3, 8]: 99% remaining

Q: Which SGF ([1]; % remaining @ 1 h) does the source give for `CC(C)OCCn1c(=S)[nH]c(=O)c2c1ccn2COC(=O)CCCCOC(=O)CNC(=O)OC(C)(C)C` [Example 328, {4-oxo-1-[2-(propan-2-yloxy)ethyl]-2-sulfanylidene-1H,2H,3H,4H,5H-pyrrolo[3,2-d]pyrimidin-5-yl}methyl 5-[(2-{[(tert-butoxy)carbonyl]amino}acetyl)oxy] pentanoate] here?
A: 97%@ 1 h

Q: What about the “human Plasma stability” value ([2]; % remaining @ 1 h) of the same compound?
A: 11%@ 1 h

Q: And the SIF ([3]; % remaining @ 1 h)?
A: 6%@ 1 h

Q: Which results are given for `CC(C)OCCn1c(SCOC(=O)[C@@H](N)Cc2ccccc2)nc(=O)c2[nH]ccc21.O=C(O)C(F)(F)F` [Example 310, trifluoroacetic acid ({4-oxo-1-[2-(propan-2-yloxy)ethyl]-1H,4H,5H-pyrrolo[3,2-d]pyrimidin-2-yl}sulfanyl)methyl (2S)-2-amino-3-phenylpropanoate]?
A: SGF ([1]; % remaining @ 1 h): 99% @ 1 h; human Plasma stability ([2]; % remaining @ 1 h): 4% @ 1 h; SIF ([3]; % remaining @ 1 h): 32% @ 1 h

Q: Which results are given for `CC(C)OCCn1c(=S)[nH]c(=O)c2c1ccn2S(=O)(=O)c1ccccc1F` [Example 79, 5-(2-fluorobenzenesulfonyl)-1-[2-(propan-2-yloxy)ethyl]-2-sulfanylidene-1H,2H,3H,4H,5H-pyrrolo[3,2-d]pyrimidin-4-one]?
A: SGF [1, 4]: 92%; human Plasma stability [2, 5]: 98%; SIF [3, 6]: 82%

Q: Which SGF [1, 9] does the source give for `CCOC(=O)OCSc1nc(=O)c2c(ccn2CSc2nc(=O)c3[nH]ccc3n2CCOC(C)C)n1CCOC(C)C` [Example 202] here?
A: 45% remaining

Q: What about the “human Plasma stability” value [2, 10] of the same compound?
A: 3% remaining

Q: What about the SIF [3, 11] of the same compound?
A: 52% remaining

Q: What does the source list for `CC(C)OCCn1c(=S)[nH]c(=O)c2c1ccn2S(C)(=O)=O` [Example 76, 5-methanesulfonyl-1-[2-(propan-2-yloxy)ethyl]-2-sulfanylidene-1H,2H,3H,4H,5H-pyrrolo[3,2-d]pyrimidin-4-one]?
A: SGF [1, 4]: 96%; human Plasma stability [2, 5]: 98%; SIF [3, 6]: 91%

Q: With `CC(C)OCCn1c(=S)[nH]c(=O)c2c1ccn2S(=O)(=O)c1ccccc1` [Example 78, 5-(benzenesulfonyl)-1-[2-(propan-2-yloxy)ethyl]-2-sulfanylidene-1H,2H,3H,4H,5H-pyrrolo[3,2-d]pyrimidin-4-one] as the compound, how does the SGF [1, 4] read?
A: 100%

Q: And the “human Plasma stability” value [2, 5]?
A: 96%

Q: What about the SIF [3, 6] of the same compound?
A: 80%

Q: For `CC(C)OCCn1c(=S)[nH]c(=O)c2c1ccn2COC(=O)OCCOCCN.O=C(O)C(F)(F)F` [Example 354, trifluoroacetic acid 2-(2-aminoethoxy)ethyl {4-oxo-1-[2-(propan-2-yloxy)ethyl]-2-sulfanylidene-1H,2H,3H,4H,5H-pyrrolo[3,2-d]pyrimidin-5-yl}methyl carbonate], which SGF [1, 7] is on record?
A: 99% remaining

Q: What about the “human Plasma stability” value ([2]; human plasma, remaining at 1 h) of the same compound?
A: 1% remaining

Q: And the SIF [3, 8]?
A: 3% remaining

Q: Which SGF [1, 9] does the source give for `CCCNC(=O)OCSc1nc(=O)c2[nH]ccc2n1CCOC(C)C` [Example 182] here?
A: 81% @ 1 h

Q: What about the “human Plasma stability” value [2, 10] of the same compound?
A: 94% @ 1 h

Q: What about the SIF [3, 11] of the same compound?
A: 69% @ 1 h

Q: Which SGF ([1]; simulated gastric fluid, at 1 h) does the source give for `Cc1cccc(N(C)C(=O)OCn2ccc3c2c(=O)[nH]c(=S)n3CCOC(C)C)c1` [Example 252] here?
A: 100% remaining

Q: And the “human Plasma stability” value ([2]; human plasma, at 1 h)?
A: 100% remaining

Q: And the SIF ([3]; simulated intestinal fluid, at 1 h)?
A: 80% remaining

Q: Which SGF [1, 7] does the source give for “tert-butyl N-(2-{2-[methyl({[{{4-oxo-1-[2-(propan-2-yloxy)ethyl]-1H,4H,5H-pyrrolo[3,2-d]pyrimidin-2-yl}sulfanyl)methoxy]carbonyl})ami-no]ethoxy}ethyl)carbamate [Example 379]” here?
A: 93% remaining

Q: What about the “human Plasma stability” value ([2]; human plasma, remaining at 1 h) of the same compound?
A: 0% remaining

Q: And the SIF [3, 8]?
A: 69% remaining

Q: Which SGF [1, 4] does the source give for `CC(C)OCCn1c(=S)[nH]c(=O)c2c1ccn2COC(=O)CCCCCCC(=O)OCCl` [Example 137, 1-Chloromethyl 8-{4-oxo-1-[2-(propan-2-yloxy)ethyl]-2-sulfanylidene-1H,2H,3H,4H,5H-pyrrolo[3,2-d]pyrimidin-5-yl}methyl octanedioate] here?
A: 74%

Q: And the “human Plasma stability” value [2, 5]?
A: 1%

Q: And the SIF [3, 6]?
A: 56%

Q: For `Cc1ccccc1S(=O)(=O)n1ccc2c1c(=O)[nH]c(=S)n2CCOC(C)C` [Example 80, 5-(2-methylbenzenesulfonyl)-1-[2-(propan-2-yloxy)ethyl]-2-sulfanylidene-1H,2H,3H,4H,5H-pyrrolo[3,2-d]pyrimidin-4-one], which SGF [1, 4] is on record?
A: 90%

Q: And the “human Plasma stability” value [2, 5]?
A: 99%

Q: What about the SIF [3, 6] of the same compound?
A: 87%

Q: Which SGF [1, 9] does the source give for `CCCNC(=O)OCSc1nc(=O)c2c(ccn2C(=O)NCCC)n1CCOC(C)C` [Example 184] here?
A: 99% @ 1 h

Q: And the “human Plasma stability” value [2, 10]?
A: 95% @ 1 h

Q: What about the SIF [3, 11] of the same compound?
A: 86% @ 1 h

Q: Which SGF [1, 4] does the source give for `CC(C)OCCn1c(=S)n(COC(=O)C2CCNCC2)c(=O)c2c1ccn2COC(=O)CCC(=O)O.O=C(O)C(F)(F)F` [Example 139, 4-oxo-4-({4-oxo-3-[(piperidine-4-carbonyloxy)methyl]-1-[2-(propan-2-yloxy)ethyl]-2-sulfanylidene-1H,2H,3H,4H,5H-pyrrolo[3,2-d]pyrimidin-5-yl}methoxy)butanoic acid; trifluoroacetic acid] here?
A: 99% remaining

Q: What about the “human Plasma stability” value [2, 5] of the same compound?
A: 8% remaining

Q: What about the SIF [3, 6] of the same compound?
A: 98% remaining

Q: Which SGF [1, 4] does the source give for `Cc1ccc(S(=O)(=O)n2ccc3c2c(=O)[nH]c(=S)n3CCOC(C)C)cc1C` [Example 75, 5-(3,4-Dimethylbenzenesulfonyl)-1-[2-(propan-2-yloxy)ethyl]-2-sulfanyl-1H,4H,5H-pyrrolo[3,2-d]pyrimidin-4-one] here?
A: 99%

Q: What about the “human Plasma stability” value [2, 5] of the same compound?
A: 100%

Q: What about the SIF [3, 6] of the same compound?
A: 91%

Q: Which results are given for `COc1ccc(CSc2nc(=O)c3[nH]ccc3n2CCOC(C)C)cc1` [Example 74, 2-{[(4-Methoxyphenyl)methyl]sulfanyl}-1-[2-(propan-2-yloxy)ethyl]-1H,4H,5H-pyrrolo[3,2-d]pyrimidin-4-one]?
A: SGF [1, 4]: 37%; human Plasma stability [2, 5]: 97%; SIF [3, 6]: 97%

Q: With `CC(C)OCCn1c(SCOC(=O)Oc2ccccc2)nc(=O)c2[nH]ccc21` [Example 205] as the compound, how does the SGF [1, 12] read?
A: 61

Q: And the “human Plasma stability” value [2, 10]?
A: 2% remaining

Q: And the SIF [3, 12]?
A: 10

Q: For “butoxy)carbonyl]amino}ethoxy)eth-yl](methyl)carbamoyl}oxy)methyl]sul-fanyl}-4-oxo-1-[2-(propan-2-yloxy)ethyl]-1H,4H,5H-pyrrolo[3,2-d]pyrimidin-5-yl)methoxy]carbonyl}(methyl)ami-no)ethoxy]ethyl}carbamate [Example 381]”, which SGF [1, 7] is on record?
A: 82% remaining

Q: And the “human Plasma stability” value ([2]; human plasma, remaining at 1 h)?
A: 97% remaining

Q: What about the SIF [3, 8] of the same compound?
A: 97% remaining

From patent publication US20240067651A1 (Biohaven Therapeutics Ltd., priority 2019, published 2024)
